Patent publication US20220347144A1, “COMPOSITIONS AND METHODS FOR PREVENTING AND/OR REDUCING WEIGHT GAIN AND ASSOCIATED CONDITIONS” (University of Virginia Patent Foundation, priority 2019, published 2022)
Entries after “also recorded” stand apart in the source; their conditions may differ.

How the values were obtained:
C57Bl/6J mice [1] = assay: Energy expenditure, respiratory exchange ratio and locomotion in metabolic cages; assay type: in vivo, mouse
Method: For determination of energy expenditure, respiratory exchange ratios, and activity, mice were placed in an Oxymax metabolic chamber systems (Comprehensive Laboratory Animal Monitoring System, CLAMS, from Columbus Instruments (Columbus, Ohio, United States of America). Oxygen consumption (V02) and carbon dioxide production (VCO2) were determined for each mouse every 18 minutes over 72 hours with ambulatory activity assessed every minute over this same time period. Only the last two complete light and dark cycles (spanning 48 hours) were used for data analysis. Feces was collected from these studies and shipped to the Mouse Metabolic Phenotyping Core at the University of Texas Southwestern for bomb calorimetry analysis using a Parr 6200 Isoperibol Calorimeter (Parr Instrument Company, Moline, Ill., United States of America).

C57Bl/6J mice [2] = assay: Average food consumption over 12 weeks; assay type: in vivo, mouse
Method: (§1) Animals. Animal experiments were approved by the Animal Care and Use Committee of the University of Virginia (Charlottesville, Va., United States of America). C57Bl/6J mice were obtained from Jackson Laboratories (Bar Harbor, Me., United States of America). Mice were group housed in standard cages with up to five mice per cage with a 12 hour dark/light cycle. All mice were weighed once per week. Weekly food consumption was measured, with the amount consumed per cage averaged amongst the mice in the cage. Body composition was determined by use of an ECHOMRI™-100H Body Composition Analyzer (EchoMRI LLC, Houston, Tex., United States of America).

HEK293 cells = assay: CerS2 siRNA knockdown in HEK293 cells with nervonic acid treatment, C24:1 ceramide; assay type: cell-based; details: 1 μM NA for 24 hours
Method: Cell culture. HEK293 cells were grown in DMEM containing 10% FBS. Cells were transfected with Silencer Select siRNA to CerS2 (s26789) or Silencer Select negative control No. 1 using LIPOFECTAMINE® 3000 brand transfection reagent following the manufacturer's protocol. All culture reagents were obtained from Thermo Fisher Scientific (Waltham, Mass., United States of America). 48 hours post-transfection, cells were treated with vehicle or 1 μM nervonic acid for 24 hours.
(§2) Sphingolipid and acylcarnitine measurements by liquid chromatography-mass spectrometry. Sphingolipids were analyzed as described previously (Wijesinghe et al., 2010) for FIG. 1B or with modifications described herein. Liver samples from rats fed a low or high fat diet were obtained from Scot Kimball's laboratory at the Pennsylvania State University (Hershey, Pa.). Mouse liver samples were analyzed with modifications as described previously (Pearson et al., 2020). For FIGS. 1A and 5D, liver homogenates were subjected to lipid extraction and subjected to liquid chromatography-electrospray ionization mass spectrometry was performed on an I-class Acquity with a 2.1 mm×10 cm C18 CSH […] particle size column coupled to an in-line TQ-S mass spectrometer from Waters Corporation (Milford, Mass., United States of America).

C57Bl/6J mice [3] = assay: Glucose Tolerance Test (GTT); assay type: in vivo, mouse; details: HFD+NA versus HFD, 10 weeks on diets
Method: Insulin Tolerance Test (ITT) and Glucose Tolerance Test (GTT) and analysis of blood glucose and plasma insulin. ITT and GTT were performed as described in Lansey et al., 2012. Briefly, for ITT, random-fed mice were given an intraperitoneal injection (IP) of insulin (0.75 U/kg in 0.9% NaCl). Blood glucose levels were determined by a glucometer (Contour Next EZ Blood Glucose Monitoring System, Bayer, Leverkusen, Germany) at the indicated time points after injection. For GTT, mice were fasted for 16 hours prior to testing. D-Glucose, prepared the day before, was administered via an IP injection (1 g/kg), and blood glucose levels were determined by a glucometer at the indicated time points after injection. Plasma insulin levels were determined using a STELLUX® brand Chemi Rodent Insulin ELISA kit (Cat. No. 80-INSMR-CHO1; APLCO, Salem, N.H., United States of America) or an Ultrasensitive Rat/Mouse Insulin ELISA kit, Low Range Assay (Cat. No. 90060; Crystal Chem, Downers Grove, Ill., United States of America). The luminescence assay was conducted using a VICTOR2 Plate Reader (Perkin Elmer, Waltham, Mass., United States of America).

C57Bl/6J mice [4] = assay: Liver ceramide and lipid composition by LC-MS/MS in mice on control or high fat diets with or without nervonic acid; assay type: in vivo, mouse
Method: as §1
(§3) Diets. Diets were obtained from Research Diets (New Brunswick, N.J., United States of America). The low fat chow was D12450Ji (10 kcal % fat) and the high fat chow was D12492 (60 kcal % fat). These two chows were reformulated by replacing a portion of dietary fat with an ethyl ester of nervonic acid from Nu-Chek Prep (Elysian, Minn., United States of America) to produce isocaloric diets with nervonic acid at 6 g per kg of diet (0.6%). For the three most prevalent fatty acids in these diets: C16 comprised 14.4%, 11.7%, 18.5%, and 18.1%; C18:1 comprised 27.4%, 22.8%, 32%, and 31.4%; and C18:2 comprised 39.6%, 36.2%, 26.9%, and 26.5% of the fatty acid composition of the Cnt, Cnt+NA, HFD, and HFD+NA diets, respectively. Mice were started on diets at ˜8 weeks of age and given ad libitum access.
as §2

C57Bl/6J mice [5] = assay: Liver acylcarnitine levels by LC-MS/MS; assay type: in vivo, mouse
Method: Acylcarnitines were quantified as their butyl esters as described in Giesbertz et al., 2015. Briefly, liver tissue was extracted in ice-cold methanol spiked with stable-isotopically labeled internal standards (Cambridge Isotope Laboratories, Tewksbury, Mass., United States of America). Insoluble material was pelleted and the supernatant subsequently dried down under vacuum. Samples were solubilized in n-butanol containing 5% acetyl chloride and incubated for 60° C. for 20 minutes, Samples were subsequently dried down again and resuspended in 50:50 water:methanol for LC-ESI-MS/MS analysis. LC-MS/MS analysis was performed on a I-class Acquity with a 2.1 mm×10 cm C18 CSH […] particle size column coupled to an in-line TQ-S mass spectrometer using multiple reaction monitoring. Calibration curves were generated from standard mixtures of acylcarnitines from Cambridge Isotope Laboratories.

C57Bl/6J mice [6] = assay: Plasma C24:1-ceramides after 72 hours on the diets; assay type: in vivo, mouse; details: control and HFDs; 72 hours on diets
Source text: as §3
Sphingolipid and acylcarnitine measurements by liquid chromatography-mass spectrometry. Sphingolipids were analyzed as described previously (Wijesinghe et al., 2010) for FIG. 1B or with modifications described herein. Liver samples from rats fed a low or high fat diet were obtained from Scot Kimball's laboratory at the Pennsylvania State University (Hershey, Pa.). Mouse liver samples were analyzed with modifications as described previously (Pearson et al., 2020). […]

[7] = NA enrichment in both the control diet and the HFD

(Z)-tetracos-15-enoic acid [NA]
ambulatory activity (C57Bl/6J mice [1]; HFD+NA versus HFD): similar
oxygen consumption (VO2) (C57Bl/6J mice [1]; HFD+NA versus HFD, light and dark cycle): significantly lower
carbon dioxide production (VCO2) (C57Bl/6J mice [1]; HFD+NA versus control and HFD groups): significant reduction
ambulatory activity (C57Bl/6J mice [1]; control+NA versus control): similar
heat production (C57Bl/6J mice [1]; control+NA versus control): No differences
respiratory exchange ratio (RER) (C57Bl/6J mice [1]; control+NA versus control, light and dark cycles): No statistical changes
average food consumption (C57Bl/6J mice [2]; HFD+NA versus HFD, 12 weeks): similar
food consumption (C57Bl/6J mice [2]; control+NA versus control): not significantly different
C24:1 ceramide after CerS2 knockdown (HEK293 cells): only partially restored
glucose tolerance (glucose load, area under the curve) (C57Bl/6J mice [3]): significantly improved glucose tolerance
glucose tolerance (glucose load, area under the curve) (C57Bl/6J mice [3]; listed as nervonic acid): reduction in the glucose load
hepatic C20 and C22-ceramides (C57Bl/6J mice [4]; HFD-fed mice, NA-supplemented diet): back to control levels
C24:1-lysophosphatidylcholine in liver (C57Bl/6J mice [4]; NA-enriched control and HFDs): elevated
diacylglyceride C16:0/C24:1 in liver (C57Bl/6J mice [4]; NA-enriched control and HFDs): elevated
diacylglyceride C18:0/C24:1 in liver (C57Bl/6J mice [4]; NA-enriched control and HFDs): elevated
diacylglyceride C18:1/C24:1 in liver (C57Bl/6J mice [4]; NA-enriched control and HFDs): elevated
diacylglyceride C18:2/C24:1 in liver (C57Bl/6J mice [4]; NA-enriched control and HFDs): elevated
total amounts of ceramides in liver (C57Bl/6J mice [4]; between diet groups with and without NA): consistent between diet groups
C24:1-hexosylceramide in liver (C57Bl/6J mice [4]; both diets, NA 0.6%): increasing
C24:1-sphingomyelin in liver (C57Bl/6J mice [4]; both diets, NA 0.6%): increasing
other ceramides C20-C26 in liver (C57Bl/6J mice [4]; normal and HFD fed groups, NA 0.6% by diet weight): concomitant decreases
C24:1-ceramides in liver (C57Bl/6J mice [4]; normal and HFD fed groups, ethyl ester of NA 0.6% by diet weight): increases
dicarboxyl-acylcarnitines C5 (C5-DC) and C6 (C6-DC) levels in liver (C57Bl/6J mice [5]; HFD enriched with NA): teductions
long-chain acylcarnitines in liver (C57Bl/6J mice [5]; HFD+NA versus HFD): significant decreases; also recorded: largely restored to control levels
hydroxyl-fatty acylcarnitines in liver (C57Bl/6J mice [5]; NA enrichment in both diets, C4-OH, C6-OH, C10-OH, C8-OH): increased
acetyl-carnitine (C2) in liver (C57Bl/6J mice [5]; [7]): increased
free carnitine (C0) in liver (C57Bl/6J mice [5]; [7]): increased
plasma C24:1-ceramides (C57Bl/6J mice [6]): significant increases
